# Test results as given in US11306078B2, “Piperidine CXCR7 receptor modulators” (IDORSIA PHARMACEUTICALS LTD., priority 2016, dated 2022).
# Target: human chemokine receptor CXCR7 (Homo sapiens (Human), UniProt P25106)
# Assay: Tango CXCR7-bla U2OS beta-arrestin recruitment assay (beta-lactamase reporter, FRET), antagonism of CXCL12/SDF1-α;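 further: compounds preincubated 15 min before CXCL12 addition, then 22 h at 37 °C, FRET emission ratio read with CCF4-AM substrate after 2 h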
# Type: cell-based
# Conditions: antagonistic effect on CXCR7; Tango CXCR7-bla U2OS cells, CXCL12/SDF1-α at its EC80
# Chain of human chemokine receptor CXCR7 (P25106 whole entry): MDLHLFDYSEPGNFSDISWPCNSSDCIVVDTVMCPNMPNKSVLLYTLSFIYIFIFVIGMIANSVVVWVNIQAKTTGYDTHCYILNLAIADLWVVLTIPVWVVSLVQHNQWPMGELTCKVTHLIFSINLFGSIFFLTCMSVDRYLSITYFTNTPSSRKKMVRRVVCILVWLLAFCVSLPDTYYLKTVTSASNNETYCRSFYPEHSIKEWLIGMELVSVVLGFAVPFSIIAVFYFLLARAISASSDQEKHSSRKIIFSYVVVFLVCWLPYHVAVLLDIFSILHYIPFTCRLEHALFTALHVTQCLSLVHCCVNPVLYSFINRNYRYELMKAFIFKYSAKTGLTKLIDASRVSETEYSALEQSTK
row,SMILES,IC50 [nM]
1,"O=C(N[C@@H]1CCN(CC2CC2)C[C@H]1C(=O)NC1(c2ncccn2)CC1)c1noc(-c2ccc(F)cc2F)c1F (racemic) [Example 3.022, rac-(3R*,4R*)-1-Cyclopropylmethyl-4-{[5-(2,4-difluoro-phenyl)-4-fluoro-isoxazole-3-carbonyl]-amino}-piperidine-3-carboxylic acid (1-pyrimidin-2-yl-cyclopropyl)-amide]",28
2,"CC(NC(=O)[C@@H]1CN(C2CCCCC2)CC[C@H]1NC(=O)c1cc(-c2ccc(F)cc2F)on1)c1ccncn1 (relative stereo) [Example 1.063, (3R*,4R*)-1-Cyclohexyl-4-{[5-(2,4-difluoro-phenyl)-isoxazole-3-carbonyl]-amino}-piperidine-3-carboxylic acid ((1RS)-1-(pyrimidin-4-yl)-ethyl)-amide]",107
3,"O=C(N[C@@H]1CCN(C2CCCCC2)C[C@H]1C(=O)NC[C@H](O)c1ccccc1)c1cc(-c2ccc(F)cc2F)on1 (relative stereo) [Example 1.072, (3R*,4R*)-1-Cyclohexyl-4-{[5-(2,4-difluoro-phenyl)-isoxazole-3-carbonyl]-amino}-piperidine-3-carboxylic acid ((R)-2-hydroxy-2-phenyl-ethyl)-amide]",32
4,"O=C(N[C@@H]1CCN(C2CCCCC2)C[C@H]1C(=O)NC[C@@H](O)c1ccccc1)c1cc(-c2ccc(F)cc2F)on1 (relative stereo) [Example 1.073, (3R*,4R*)-1-Cyclohexyl-4-{[5-(2,4-difluoro-phenyl)-isoxazole-3-carbonyl]-amino}-piperidine-3-carboxylic acid ((S)-2-hydroxy-2-phenyl-ethyl)-amide]",118
5,"CC(NC(=O)[C@@H]1CN(C2CCCCC2)CC[C@H]1NC(=O)c1cc(-c2ccc(F)cc2F)on1)C(F)F (relative stereo) [Example 1.077, (3R*,4R*)-1-Cyclohexyl-4-{[5-(2,4-difluoro-phenyl)-isoxazole-3-carbonyl]-amino}-piperidine-3-carboxylic acid ((1RS)-2,2-difluoro-1-methyl-ethyl)-amide]",443

# Continued by falling IC50, values first:
row,IC50 [nM],SMILES
1,916,"O=C(N[C@@H]1CCN(C2CCCCC2)C[C@H]1C(=O)N1CCC(O)C1)c1cc(-c2ccc(F)cc2F)on1 (relative stereo) [Example 1.028, 5-(2,4-Difluoro-phenyl)-isoxazole-3-carboxylic acid [(3R*,4R*)-1-cyclohexyl-3-((3RS)-3-hydroxy-pyrrolidine-1-carbonyl)-piperidin-4-yl]-amide]"
2,857,"CN(C)C(=O)[C@]1(C)CN(C2CCCCC2)CC[C@H]1NC(=O)c1cc(-c2ccc(F)cc2F)on1 (racemic) [Example 5.002, rac-(3R*,4R*)-1-Cyclohexyl-4-{[5-(2,4-difluoro-phenyl)-isoxazole-3-carbonyl]-amino}-3-methyl-piperidine-3-carboxylic Acid Dimethylamide]"
3,604,"CC(CO)NC(=O)[C@@H]1CN(C2CCCCC2)CC[C@H]1NC(=O)c1cc(-c2ccc(F)cc2F)on1 (relative stereo) [Example 1.076, (3R*,4R*)-1-Cyclohexyl-4-{[5-(2,4-difluoro-phenyl)-isoxazole-3-carbonyl]-amino}-piperidine-3-carboxylic acid ((1RS)-2-hydroxy-1-methyl-ethyl)-amide]"
4,556,"O=C(N[C@@H]1CCN(C2CCCCC2)C[C@H]1C(=O)NCC1CCCO1)c1cc(-c2ccc(F)cc2F)on1 (relative stereo) [Example 1.044, (3R*,4R*)-1-Cyclohexyl-4-{[5-(2,4-difluoro-phenyl)-isoxazole-3-carbonyl]-amino}-piperidine-3-carboxylic acid ((2RS)-tetrahydro-furan-2-ylmethyl)-amide]"
5,556,"O=C(N[C@@H]1CCN(C2CCCCC2)C[C@H]1C(=O)NC(c1ccccn1)C(F)(F)F)c1cc(-c2ccc(F)cc2F)on1 (relative stereo) [Example 1.069, (3R*,4R*)-1-Cyclohexyl-4-{[5-(2,4-difluoro-phenyl)-isoxazole-3-carbonyl]-amino}-piperidine-3-carboxylic acid ((1RS)-2,2,2-trifluoro-1-pyridin-2-yl-ethyl)-amide]"
